A short description of experiment [1]: Inhibition of FLT3 ITD mutant in human MOLM13 cells assessed as reduction in cell viability incubated for 72 hrs by MTT assay. Background: Tetrazolium dyes change colour on reduction, which living cells bring about.
A short description of experiment [2]: Inhibition of JAK2 V617F mutant in mouse BaF3 cells assessed as reduction in cell viability incubated for 72 hrs by MTT assay.
A short description of experiment [3]: Inhibition of JAK2 V617F mutant in human SET-2 cells assessed as reduction in cell viability incubated for 72 hrs by MTT assay.

Molecules are shown by their SMILES. pIC50: −log10 of the molar value.

For `Cc1cnc(Nc2ccc(N3CCC(N(C)CCO)CC3)c(F)c2)nc1-c1cnn(C(C)C)c1`, in experiment [1], the pIC50 (as a rule, −log10 of the IC50, conventionally taken in molar units) was 7.14.

For the compound `Cc1cnc(Nc2ccc3c(c2)CCN3CCO)nc1-c1cnn(C(C)C)c1`, the pIC50 is 5.36 in experiment [2], 5.69 in experiment [1] and 5.42 in experiment [3].

Take `Cc1cnc(Nc2ccc3c(c2)CN(CCO)C3)nc1-c1cnn(C(C)C)c1`: in experiment [1], the pIC50 is 5.75.

For `Cc1cnc(Nc2ccc3c(c2)CCN(CCO)C3)nc1-c1cnn(C(C)C)c1`, the negative-log IC50 (pIC50) in experiment [2] is 6.37; in experiment [1] it was 5.90; in experiment [3], 6.49.

Regarding `Cc1cnc(Nc2ccc3c(c2)CCN(CCCO)C3)nc1-c1cnn(C(C)C)c1`, the negative-log IC50 (pIC50) in experiment [2] was 6.44; in experiment [1], 5.88; in experiment [3], 6.40.

Regarding `CC(C)n1cc(-c2nc(Nc3ccc4c(c3)CCN(C(=O)CO)C4)ncc2F)cn1`, the pIC50 in experiment [2] was 6.17; in experiment [1], 6.34; in experiment [3], 6.24.

As to `Cc1cnc(Nc2ccc3c(c2)CCN(C(=O)Nc2cccc(Cl)c2)C3)nc1-c1cnn(C(C)C)c1`, the values for the pIC50 in experiment [2], in experiment [1] and in experiment [3] were 5.66, 5.68 and 5.46, respectively.

With `CCNC(=O)N1CCc2cc(Nc3ncc(C)c(-c4cnn(C(C)C)c4)n3)ccc2C1`, the pIC50 in experiment [2] was 5.72; in experiment [1], 5.97; in experiment [3] it was 5.63.

Regarding `CC(C)n1cc(-c2nc(Nc3ccc4c(c3)CCN(CCCO)C4)ncc2F)cn1`, the negative logarithm of the IC50 (pIC50) in experiment [2] is 6.41; in experiment [1] it was 6.34; in experiment [3] it was 6.51.

In the case of `CCCNC(=O)N1CCc2cc(Nc3ncc(C)c(-c4cnn(C(C)C)c4)n3)ccc2C1`, the pIC50 in experiment [2] is 5.92; in experiment [1], 5.68; in experiment [3], 5.75.

With `Cc1cnc(Nc2cc3c(cc2F)CN(CCO)CC3)nc1-c1cnn(C(C)C)c1`, the pIC50 in experiment [2] is 5.59; in experiment [1], < 5.30; in experiment [3], 5.35.

Turning to `CC(C)n1cc(-c2nc(Nc3ccc4c(c3)CCN(CCO)C4)ncc2F)cn1`, the figures for the negative logarithm of the IC50 (pIC50) in experiment [2], in experiment [1] and in experiment [3] were 6.12, 6.26 and 6.19, respectively.

On to `CC(C)n1cc(-c2nc(Nc3ccc4c(c3)CCN(CCCCO)C4)ncc2F)cn1`, for which the pIC50 was 6.35 in experiment [2], 6.34 in experiment [1] and 6.22 in experiment [3].

As for `CC(C)n1cc(-c2nc(Nc3ccc4c(c3)CCN(CCCCCO)C4)ncc2F)cn1`, the negative-log IC50 (pIC50) in experiment [2] was 6.38; in experiment [1], 6.45; in experiment [3], 6.31.

As for `Cc1cnc(Nc2ccc3c(c2)CCN(CCCCO)C3)nc1-c1cnn(C(C)C)c1`, the negative logarithm of the IC50 (pIC50) in experiment [2] was 6.63; in experiment [1], 6.06; in experiment [3] it was 6.57.

On to `Cc1cnc(Nc2ccc3c(c2)CCN(CCCCCO)C3)nc1-c1cnn(C(C)C)c1`, for which the negative-log IC50 (pIC50) in experiment [1] was 6.02.

On to `CCOCCN1CCc2cc(Nc3ncc(C)c(-c4cnn(C(C)C)c4)n3)ccc2C1`, for which the pIC50 in experiment [2] is 6.52; in experiment [1], 6.25; in experiment [3], 6.47.

Take `CCCCN1CCc2cc(Nc3ncc(C)c(-c4cnn(C(C)C)c4)n3)ccc2C1`: the pIC50 in experiment [2] was 6.19; in experiment [1], 6.12; in experiment [3] it was 6.23.

In the case of `C=CCN1CCc2cc(Nc3ncc(C)c(-c4cnn(C(C)C)c4)n3)ccc2C1`, the negative logarithm of the IC50 (pIC50) was 6.34 in experiment [2], 6.06 in experiment [1] and 6.54 in experiment [3].

As to `Cc1cnc(Nc2ccc3c(c2)CCN(CC#N)C3)nc1-c1cnn(C(C)C)c1`, the pIC50 in experiment [1] is 6.19; in experiment [3], 7.14.

On to `Cc1cnc(Nc2ccc3c(c2)CCN(CCC#N)C3)nc1-c1cnn(C(C)C)c1`, for which the results for the pIC50 in experiment [2], in experiment [1] and in experiment [3] were 6.75, 6.45 and 6.53, respectively.

As to `C#CCN1CCc2cc(Nc3ncc(C)c(-c4cnn(C(C)C)c4)n3)ccc2C1`, the pIC50 in experiment [1] was 5.83.

As for `CC#CCN1CCc2cc(Nc3ncc(C)c(-c4cnn(C(C)C)c4)n3)ccc2C1`, the pIC50 in experiment [2] was 6.04; in experiment [1] it was 5.81; in experiment [3], 6.10.

`COC(=O)/C=C/CN1CCc2cc(Nc3ncc(C)c(-c4cnn(C(C)C)c4)n3)ccc2C1`: the figures for the pIC50 in experiment [2], in experiment [1] and in experiment [3] were 8.00, 6.30 and 7.85, respectively.

As for `COC(=O)CCCN1CCc2cc(Nc3ncc(C)c(-c4cnn(C(C)C)c4)n3)ccc2C1`, the results for the pIC50 in experiment [2], in experiment [1] and in experiment [3] were 6.03, 5.89 and 5.98, respectively.

As to `Cc1cnc(Nc2ccc3c(c2)CCN(C(=O)/C=C/C(=O)c2ccccc2)C3)nc1-c1cnn(C(C)C)c1`, the figures for the pIC50 in experiment [1] and in experiment [3] were 6.34 and 7.28, respectively.

As to `Cc1ccc(C(=O)/C=C/C(=O)N2CCc3cc(Nc4ncc(C)c(-c5cnn(C(C)C)c5)n4)ccc3C2)cc1`, the pIC50 is 7.89 in experiment [2], 6.12 in experiment [1] and 7.82 in experiment [3].

`Cc1ccc(C(=O)CCC(=O)N2CCc3cc(Nc4ncc(C)c(-c5cnn(C(C)C)c5)n4)ccc3C2)cc1`: the negative-log IC50 (pIC50) in experiment [2] is 6.11; in experiment [1], 5.98; in experiment [3] it was 6.20.

As to `Cc1cnc(Nc2ccc3c(c2)CCN(C(=O)/C=C/CN(C)C)C3)nc1-c1cnn(C(C)C)c1`, the negative-log IC50 (pIC50) in experiment [1] is 6.06; in experiment [3], 7.92.

Take `Cc1cnc(Nc2ccc3c(c2)CCN(C(=O)CCCN(C)C)C3)nc1-c1cnn(C(C)C)c1`: the pIC50 is 5.61 in experiment [2], 5.83 in experiment [1] and 6.01 in experiment [3].

As to `Cc1cnc(Nc2ccc3c(c2)CCN(C/C=C/C(=O)O)C3)nc1-c1cnn(C(C)C)c1`, the negative logarithm of the IC50 (pIC50) in experiment [2] was 6.89; in experiment [1], 6.07; in experiment [3] it was 6.48.

In the case of `Cc1cnc(Nc2ccc3c(c2)CCN(C/C=C/C(=O)NCCN2CCCCC2)C3)nc1-c1cnn(C(C)C)c1`, the negative-log IC50 (pIC50) in experiment [2] was 5.92; in experiment [1] it was 5.68; in experiment [3] it was 6.26.

Turning to `Cc1cnc(Nc2ccc3c(c2)CCN(C/C=C/C(=O)NC(C)(C)C)C3)nc1-c1cnn(C(C)C)c1`, the pIC50 is 6.84 in experiment [2], 5.98 in experiment [1] and 6.21 in experiment [3].

In the case of `CCN(CC)C(=O)/C=C/CN1CCc2cc(Nc3ncc(C)c(-c4cnn(C(C)C)c4)n3)ccc2C1`, the negative logarithm of the IC50 (pIC50) in experiment [2] was 6.54; in experiment [1], 6.18; in experiment [3], 6.48.

On to `Cc1cnc(Nc2ccc3c(c2)CN(CC#N)CC3)nc1-c1cnn(C(C)C)c1`, for which the negative logarithm of the IC50 (pIC50) was 7.12 in experiment [2], 6.37 in experiment [1] and 7.02 in experiment [3].

`Cc1cnc(Nc2ccc3c(n2)CCN(CCCO)C3)nc1-c1cnn(C(C)C)c1`: the results for the pIC50 in experiment [2], in experiment [1] and in experiment [3] were 5.84, 5.59 and 5.66, respectively.

In the case of `Cc1cnc(Nc2ccc3c(c2)CN(C(=O)/C=C/CN(C)C)CC3)nc1-c1cnn(C(C)C)c1`, the pIC50 was 7.60 in experiment [2], 6.34 in experiment [1] and 7.82 in experiment [3].

Take `Cc1ccc(C(=O)/C=C/C(=O)N2CCc3ccc(Nc4ncc(C)c(-c5cnn(C(C)C)c5)n4)cc3C2)cc1`: in experiment [1], the pIC50 is 6.20.

With `COC(=O)/C=C/CN1CCc2ccc(Nc3ncc(C)c(-c4cnn(C(C)C)c4)n3)cc2C1`, the pIC50 in experiment [2] was 6.92; in experiment [1] it was 6.37; in experiment [3], 7.14.

As for `Cc1cnc(Nc2ccc3c(c2)CN(C(=O)/C=C/C(=O)c2ccccc2)CC3)nc1-c1cnn(C(C)C)c1`, the negative logarithm of the IC50 (pIC50) in experiment [2] was 7.21; in experiment [1] it was 6.27; in experiment [3], 7.37.
